# Data: patent publication US8722661B2, “Pyrrolopyrimidone and pyrrolopyridone inhibitors of tankyrase” (Genentech, Inc., priority 2012, dated 2014)
# Experiments:
# [1] = biological target: T1, tankyrase 2 (His6-TNKS2) (Homo sapiens, UniProt Q9H2K2); test: μHTS-TNKS-IWR2 TR-FRET binding assay with His6-TNKS2 in place of TNKS1; conditions: Table I
# T1 construct: His6-tankyrase 2 (construct: 934-1166)
# Experimental: (§1) μHTS-TNKS-IWR2TR-FRET Binding Assay
# (§2) (10 μL/well in BD1536-well plate, a single point)
# (§3) Alternatively, in place of His6-TNKS1 can use either His6-tankyrase 2 (construct: 934-1166) (His6-TNKS2) or His6-PARP1 (full length).
# (§4) Biotin-IWR2: 10 mM Biotin-IWR2 stock in DMSO, stored at −20° C.
# Positive control: 10 mM XAV 939 in DMSO, stored at −20° C.
# (§5) Prepare Biotinylated IWR2 stock solution (3.33× stock) for TOTL and cpd wells: 200 nM Biotin-IWR2 in 5% DMSO/AB1b buffer
# (§6) Prepare POSITIVE CONTROL well stock solution (3.33× stock): 200 nM XAV939 in 200 nM Biotin-IWR2/5% DMSO/AB1b buffer
# (§7) (Alternatively, use TNKS2 or PARP1 stock solutions.)
# (§8) Prepare Eu/APC stock solution (5× stock): 3.5 nM Eu-SA/50 nM APC-His6Ab in AB2 buffer
# (§9) Add 25 μL/well 1.5% DMSO/AB1c buffer in each compound well to the compound concentration at 74 μM in 8.8% DMSO/AB1c buffer or in the 2 μL DMSO CONTROL wells (BLANK, TOTAL and POSITIVE wells) in the compound plate.
# (§10) Transfer 3 μL/well above solution (solution 1,2,3) to an empty assay plate (BD1536-well plate) as follows:
# (§11) Transfer 3 μL/well of the above diluted compound solutions or compound dilution buffer to the above assay plate.
# (§12) Add 2 μL/well of 300 nM TNKS stock solution (4) to every well in the above assay plate.
# (§13) Incubate the assay plate at 26° C. for 30 minutes.
# (§14) Incubate the assay plate at 26° C. for 60 minutes.
# (§15) Read the assay plate immediately at excitation wavelength of 330 nm and emission wavelength of […] in time resolved fluorescence mode.
# (§16) Representative compound data for assays are listed below in Table I. Values are in uM.
# [2] = biological target: T2, PARP1 (His6-PARP1, full length) (Homo sapiens, UniProt P09874); test: μHTS-TNKS-IWR2 TR-FRET binding assay with His6-PARP1 in place of TNKS1; conditions: Table I
# T2 construct: His6-PARP1 (full length)
# Experimental: as §1, §2, §3, §4
# Positive control: 10 mM […] in DMSO, stored at −20° C.
# as §5, §6, §7, §8, §9, §10, §11, §12, §13, §14, §15, §16
# [3] = biological target: T3, Tankyrase 1 (TNKS1) (Homo sapiens, UniProt O95271); test: μHTS-TNKS-IWR2 TR-FRET binding assay (TNKS1)
# T3 construct: construct: 1088-1327, 1266M
# Experimental: as §1, §2
# Reagents and Stock Solutions
# as §4
# Assay buffer 1a (AB 1a) for TNKS dilution: 50 mM Tris, pH 7.4, 100 mM sodium chloride solution, 1 mM magnesium chloride solution, 1 mM DL-dithiothreitol solution, 0.2 mg/mL bovine serum albumin solution, 0.025% NP-40.
# Assay buffer 1b (AB 1b) for Biotin-IWR2 dilution: 50 mM Tris, pH 7.4, 100 mM sodium chloride solution, 1 mM magnesium chloride solution, 1 mM DL-dithiothreitol solution, 0.2 mg/mL bovine serum albumin solution, 0.05% NP-40
# Assay buffer 1c (AB 1c) for compound dilution: 50 mM Tris, pH 7.4, 100 mM sodium chloride solution, 1 mM magnesium chloride solution, 1 mM DL-dithiothreitol solution, 0.2 mg/mL bovine serum albumin solution
# Assay buffer 2 (AB2) for Eu/APC: 50 mM Tris, pH 7.4, 100 mM sodium chloride solution, 1 mM magnesium chloride solution, 0.2 mg/mL bovine serum albumin solution
# Reagent Stock Solution Preparation
# Prepare BLANK well stock solution: 5% DMSO/AB1b buffer
# Prepare TNKS1 stock solution (5× stock): 300 nM TNKS in AB1a buffer
# as §10
# TOTL and cpd wells: Solution 1 (Biotin-IWR2):
# BLNK wells: Solution 2 (No Biotin-IWR2):
# POSITIVE CONTROL wells: Solution 3 (Biotin-IWR2+XAV939)
# as §11, §12
# Centrifuge the assay plate at 2100 rpm for 2 minutes.
# as §13, §14
# [4] = biological target: T4, Tankyrase 1 (Homo sapiens, UniProt O95271); test: TNKS1 NAM assay (NADase activity, released nicotinamide by LC-MS); format: biochemical; conditions: Table I, value marked with superscript 2 (footnote not given), taken as the second assay
# T4 sequence (O95271 1-1327): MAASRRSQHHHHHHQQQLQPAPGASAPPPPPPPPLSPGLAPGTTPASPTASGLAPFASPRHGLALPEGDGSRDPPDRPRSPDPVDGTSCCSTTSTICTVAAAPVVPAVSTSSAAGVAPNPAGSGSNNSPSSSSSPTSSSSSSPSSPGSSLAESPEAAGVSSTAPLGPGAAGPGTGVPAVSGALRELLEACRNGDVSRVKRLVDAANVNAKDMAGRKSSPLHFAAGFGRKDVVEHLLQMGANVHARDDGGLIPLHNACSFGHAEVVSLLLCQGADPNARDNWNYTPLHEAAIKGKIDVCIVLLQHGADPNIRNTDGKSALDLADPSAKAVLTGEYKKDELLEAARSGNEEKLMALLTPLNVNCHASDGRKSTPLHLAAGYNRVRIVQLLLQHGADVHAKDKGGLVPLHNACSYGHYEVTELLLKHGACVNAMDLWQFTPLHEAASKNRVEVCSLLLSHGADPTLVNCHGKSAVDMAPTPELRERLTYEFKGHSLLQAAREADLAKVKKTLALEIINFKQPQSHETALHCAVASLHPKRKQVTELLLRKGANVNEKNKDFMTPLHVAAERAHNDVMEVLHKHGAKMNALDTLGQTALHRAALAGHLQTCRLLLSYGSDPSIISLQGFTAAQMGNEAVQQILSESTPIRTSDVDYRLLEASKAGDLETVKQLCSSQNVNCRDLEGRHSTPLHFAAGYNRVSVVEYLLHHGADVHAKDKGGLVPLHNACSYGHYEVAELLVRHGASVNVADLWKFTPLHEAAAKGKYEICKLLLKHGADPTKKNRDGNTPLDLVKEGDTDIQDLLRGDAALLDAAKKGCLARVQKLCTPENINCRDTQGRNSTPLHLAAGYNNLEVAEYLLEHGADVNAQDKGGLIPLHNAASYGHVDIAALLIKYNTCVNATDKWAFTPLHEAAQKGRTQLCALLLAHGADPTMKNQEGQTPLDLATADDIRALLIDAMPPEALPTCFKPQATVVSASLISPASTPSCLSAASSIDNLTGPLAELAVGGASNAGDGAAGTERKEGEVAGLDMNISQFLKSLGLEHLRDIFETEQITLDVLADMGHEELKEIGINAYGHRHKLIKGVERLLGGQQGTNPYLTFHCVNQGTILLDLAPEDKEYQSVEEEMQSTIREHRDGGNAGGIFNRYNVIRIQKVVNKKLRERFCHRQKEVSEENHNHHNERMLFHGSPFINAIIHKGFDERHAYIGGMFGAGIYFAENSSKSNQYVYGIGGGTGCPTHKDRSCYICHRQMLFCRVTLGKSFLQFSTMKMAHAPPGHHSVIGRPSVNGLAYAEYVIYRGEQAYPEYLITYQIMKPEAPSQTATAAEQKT
# Experimental: NADase activity of Tankyrase 1 was measured by quantifying released nicotinamide using liquid chromatography mass spectrometry. Varying concentrations of experimental compounds were incubated in 10 μL reactions containing 25 nM recombinant Tankyrase 1, 1 mM NAD+, 5 μM d4-nicotinamide internal standard, 2% DMSO, 50 mM Tris pH 7.5, 5 mM CaCl2, and 0.01% Triton X-100 for 1 h at RT. Reactions were quenched by mixing 2 μL of the reaction mixture with 98 μL of 0.05% formic acid. 1 μL of quenched reaction was loaded onto a reverse phase BEH-Phenyl column (Waters) pre-equilibrated with 1 mM ammonium formate and eluted with a linear gradient to 80% acetonitrile. Compound IC50s were determined by four-parameter curve fitting.
# as §16
# T2 sequence (P09874 whole entry): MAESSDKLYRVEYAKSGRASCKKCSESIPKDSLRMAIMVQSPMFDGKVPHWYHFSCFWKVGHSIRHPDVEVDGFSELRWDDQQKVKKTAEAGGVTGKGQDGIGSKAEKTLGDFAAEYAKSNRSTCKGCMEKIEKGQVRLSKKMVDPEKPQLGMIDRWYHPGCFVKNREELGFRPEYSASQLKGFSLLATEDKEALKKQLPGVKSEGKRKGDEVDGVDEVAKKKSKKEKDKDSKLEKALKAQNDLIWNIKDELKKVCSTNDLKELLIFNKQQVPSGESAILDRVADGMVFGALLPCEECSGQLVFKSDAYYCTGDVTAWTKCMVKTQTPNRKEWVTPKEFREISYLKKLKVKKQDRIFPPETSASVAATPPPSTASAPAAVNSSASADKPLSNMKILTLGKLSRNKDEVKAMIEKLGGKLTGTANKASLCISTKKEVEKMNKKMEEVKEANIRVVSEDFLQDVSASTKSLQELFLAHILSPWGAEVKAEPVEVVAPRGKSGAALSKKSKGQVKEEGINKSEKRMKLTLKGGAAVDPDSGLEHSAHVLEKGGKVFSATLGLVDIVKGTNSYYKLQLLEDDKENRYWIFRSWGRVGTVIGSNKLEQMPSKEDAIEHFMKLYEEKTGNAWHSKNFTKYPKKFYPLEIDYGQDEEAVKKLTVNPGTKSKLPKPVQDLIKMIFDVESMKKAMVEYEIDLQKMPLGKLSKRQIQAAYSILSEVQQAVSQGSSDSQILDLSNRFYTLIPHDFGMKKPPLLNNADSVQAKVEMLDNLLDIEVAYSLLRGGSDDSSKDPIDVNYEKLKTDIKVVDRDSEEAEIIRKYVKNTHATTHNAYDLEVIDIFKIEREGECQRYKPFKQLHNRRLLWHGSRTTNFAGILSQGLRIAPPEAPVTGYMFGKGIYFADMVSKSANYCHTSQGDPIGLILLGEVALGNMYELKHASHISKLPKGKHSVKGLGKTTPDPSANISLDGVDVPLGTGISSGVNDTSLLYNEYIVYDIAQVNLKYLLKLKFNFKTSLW
# T1 sequence (Q9H2K2 934-1166): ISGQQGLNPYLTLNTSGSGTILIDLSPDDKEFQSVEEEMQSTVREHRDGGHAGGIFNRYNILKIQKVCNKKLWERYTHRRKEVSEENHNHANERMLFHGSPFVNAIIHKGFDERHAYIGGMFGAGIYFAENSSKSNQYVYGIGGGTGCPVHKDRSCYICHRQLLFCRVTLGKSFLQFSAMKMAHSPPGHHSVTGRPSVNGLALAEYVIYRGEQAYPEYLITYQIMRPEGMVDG
SMILES,IC50 [1],IC50 [2],IC50 [3],IC50 [4]
"C=CCn1ccc2c(=O)[nH]c(-c3ccc(C(F)(F)F)cc3)nc21 [Example 52, 7-Allyl-2-(4-trifluoromethyl-phenyl)-3,7-dihydro-pyrrolo[2,3-d]pyrimidin-4-one]",730 nM,> 50000 nM,750 nM,
"O=c1[nH]c(-c2ccc(C(F)(F)F)cc2)nc2c1ccn2CCC(O)CO (stereo not shown) [Example 53, 7-(3,4-Dihydroxy-butyl)-2-(4-trifluoromethyl-phenyl)-3,7-dihydro-pyrrolo[2,3-d]pyrimidin-4-one]",168 nM,2380 nM,240 nM,
"O=c1[nH]c(-c2ccc(C(F)(F)F)cc2)nc2c1ccn2CC(O)CO (stereo not shown) [Example 54, 7-(2,3-Dihydroxy-propyl)-2-(4-trifluoromethyl-phenyl)-3,7-dihydro-pyrrolo[2,3-d]pyrimidin-4-one]",237 nM,13500 nM,425 nM,
"Cn1ccc2c(=O)[nH]c(-n3cccn3)nc21 [Example 56, 7-Methyl-2-pyrazol-1-yl-3,7-dihydro-pyrrolo[2,3-d]pyrimidin-4-one]",9160 nM,> 50000 nM,7800 nM,
"O=c1[nH]c(-c2ccc(C(F)(F)F)cc2)nc2c1ccn2C1CC1 [Example 59, 7-Cyclopropyl-2-(4-trifluoromethyl-phenyl)-3,7-dihydro-pyrrolo[2,3-d]pyrimidin-4-one]",619 nM,> 50000 nM,545 nM,
"COCCOc1cc(F)c(N2CCN(c3nc4c(ccn4CCO)c(=O)[nH]3)CC2)c(F)c1 [Example 63, 2-[4-[2 6-difluoro-4-(2-methoxyethoxy)phenyl]piperazin-1-yl]-7-(2-hydroxyethyl)-3H-pyrrolo[2,3-d]pyrimidin-4-one]",,,,9.67 nM

# The remaining compounds from weak to strong by IC50 [1], led by results:
IC50 [1],IC50 [2],IC50 [3],IC50 [4],SMILES
154 nM,3920 nM,117 nM,,"Cn1ccc2c(=O)[nH]c(-c3ccccc3)nc21 [Example 62, 7-Methyl-2-phenyl-3,7-dihydro-pyrrolo[2,3-d]pyrimidin-4-one]"
100 nM,1310 nM,108 nM,,"Cn1ccc2c(=O)[nH]c(N3CC(C)(c4ccccc4)C3)nc21 [Example 58, 7-Methyl-2-(3-methyl-3-phenyl-azetidin-1-yl)-3,7-dihydro-pyrrolo[2,3-d]pyrimidin-4-one]"
65 nM,1880 nM,48 nM,,"O=c1[nH]c(-c2ccc(C(F)(F)F)cc2)nc2c1ccn2CO [Example 57, 7-Hydroxymethyl-2-(4-trifluoromethyl-phenyl)-3,7-dihydro-pyrrolo[2,3-d]pyrimidin-4-one]"
55 nM,10600 nM,33 nM,,"O=c1[nH]c(N2CCN(c3ccccc3F)CC2)nc2c1ccn2CO [Example 60, 2-[4-(2-Fluoro-phenyl)-piperazin-1-yl]-7-hydroxymethyl-3,7-dihydro-pyrrolo[2,3-d]pyrimidin-4-one]"
40 nM,449 nM,37 nM,,"CCNC(=O)c1ccc(N2CCN(c3nc4c(ccn4C)c(=O)[nH]3)CC2)cc1 [Example 55, N-Ethyl-4-[4-(7-methyl-4-oxo-4,7-dihydro-3H-pyrrolo[2,3-d]pyrimidin-2-yl)-piperazin-1-yl]-benzamide]"
28 nM,14800 nM,34 nM,,"O=c1[nH]c(N2CCN(c3c(F)cccc3F)CC2)nc2c1ccn2CC(O)CO (stereo not shown) [Example 61, 2-(4-(2,6-difluorophenyl)piperazin-1-yl)-7-(2,3-dihydroxypropyl)-3H-pyrrolo[2,3-d]pyrimidin-4(7H)-one]"
